Source: US20260274794A1, “COMPOUNDS, COMPOSITIONS, AND METHOD OF INHIBITING TAU PROTEIN AND ALPHASYNUCLEIN AGGREGATION” (Purdue Research Foundation, priority 2023, published 2026)
“Also recorded” adds a separate entry of the source.

Tests used:
α-synuclein (α-syn) = target: T1, α-synuclein (α-syn) (Homo sapiens, UniProt P37840); assay: Thioflavin T (ThT) fluorescence assay of α-syn fibril formation; type: biochemical; conditions: compound 100 μM; ThT fluorescence intensity at plateau phase, control = 100%
T1 construct: purchased rPeptide, LLC (Watkinsville, GA)
Protocol: (§1) ThT fluorescence is routinely established assay to follow the kinetics of α-syn fibril formation with different drug candidate treatments. Compounds were first tested at a final of concentration of 100 μM and α-syn and 2N4R tau were prepared at 2 μM and 6 μM, respectively. Compounds with highest anti-fibrillary activity were tested at 3.125, 6.25, 12.5, 25, 50, and 100 μM to obtain dose-response curves.
For the α-syn ThT assay, ThT was used at a final concentration of 20 μM. α-Syn was dissolved in 20 mM Tris-HCl (pH 7.4) supplemented with 100 mM NaCl to a stock solution of 280 μM (1 mg/250 μL) prior to resuspension in ThT buffer to obtain a final concentration of 2 μM. Compounds and ThT were first added to the wells. The kinetics of fibril formation begin when the α-syn was solubilized in the ThT buffer (10 mM PBS buffer (pH 7.4), supplemented with 0.5 mM SDS and 300 mM NaCl) and added to a non-treated black 96 well microplate with a transparent flat bottom. Each well was filled with a maximum volume of 150 μL buffer with one 3 mm borosilicate bead. The background fluorescence signal consisted of ThT in buffer and 0.25% DMSO without α-syn. The excitation and emission wavelengths were set at 440 and 485 nm, respectively, with a Synergy HT multi-mode microplate reader (BioTek, Winooski, VT). Measurements were taken at 37° C. every 20 minutes over 50 hours of shaking prior to reading the plate. Samples were measured in three replicates and the experiments were repeated three times using different α-syn stock solutions. For each time point, the background fluorescence signal was subtracted. Arbitrary units of fluorescence were calculated from the mean values normalized against the maximum value in each completed assay. Arbitrarily, the maximum value (100%) for the fluorescence intensity was established for α-syn.
Compounds were tested at 100 μM with α-syn at 6 μM, resulting in a molar ratio of approximately 1:16 (protein:compound). The plateau phase of sigmoidal kinetics is of particular interest because it is the phase in which mature fibrils form and where aggregation and disaggregation are at equilibrium with each other; therefore, the fluorescence intensity between multiple compounds at the plateau phase can be compared to identify the compounds with the most promising anti-aggregation activity (Table 1, column α-syn ThT %). […] Compound 17 was the best representative of the 5-aminoindole series and moved to the tier-2 assays, even though the resulting ThT percentage of fluorescence intensity was 10% higher than the cut off. These compounds were then tested on tau 2N4R ThT fluorescence assays.

tau isoform 2N4R = target: T2, tau isoform 2N4R (Homo sapiens, UniProt P10636); assay: ThT fluorescence assay of tau isoform 2N4R fibril formation; type: biochemical; conditions: for effect on tau isoform 2N4R fibril formation (ThT): compound 100 μM, tau 2N4R 6 μM; for tau isoform 2N4R fibrillization, ThT dose-response: compound 3.125-100 μM, tau 6 μM, plateau phase
T2 construct: made in house; host or cells: E. coli BL21 (DE3), vector pRK172
Protocol: as §1
Concerning the non-phosphorylated tau (isoform 2N4R) kinetics of fibril formation, ThT was performed with the tau protein solution was diluted to a final concentration of 6 μM in PBS (pH 7.4) supplemented with 1.5 μM heparin, 20 μM ThT, 2.5 mM DTT, and 100 μM compound. Aliquots of the diluted protein solution (100 μL each) were pipetted into the wells of a 96-well plate, and a Teflon ball was added to each well. The plate was incubated at 37° C. with constant shaking at 1,000 rpm in a Tecan Stark plate reader. ThT fluorescence was measured every 15 min with excitation and emission wavelengths of 440 nm and 480 nm, and the data were plotted using GraphPad Prism.
Various structural analogs were first tested at a final concentration of 100 μM in the presence of tau 2N4R at 6 μM. Compounds 2, 4-8, and 17 were pre-selected with α-syn ThT assay prior to evaluation on the tau isoform 2N4R.

α-syn = α-syn (Homo sapiens, UniProt P37840); assay: Transmission electron microscopy of α-syn fibrils; type: biochemical; conditions: 60 μM α-syn: 600 μM compound, 24-hours exposure
Protocol: For the examination of ultrastructural changes, 60 μM of proteins (α-syn and tau isoform 2N4R) in contact with DMSO or 600 μM of compound were incubated in a 10 mM PBS buffer (pH 7.4) for 24 h at 37° C. (molar ratio 1:10). Samples at the end of tau ThT kinetics of fibril formation were also analyzed at similar molar ratio with 6 time less concentrated samples. For the preparation of grids prior examination, a volume of 10 μL if each sample was applied on a 400-mesh Formvar-carbon-coated copper grid (Electron Microscopy Sciences, Hatfield, PA). The grids were incubated for 1 minute with the sample and after washed three times with distilled water, After being air-dried, a fresh solution of 1% uranyl acetate was applied for 1 minute. Solution was absorbed with filter paper and grids were air-dried. Evaluation of grids were performed using a transmission microscope (JEOL 1400 Flash, Japan). Transmission electron micrographs were captured using an accelerating voltage of 100 kV and magnification of 40 k.
To confirm that the reduction of ThT fluorescence observed with compounds 2, 8, and 17 was due to the reduction in protein fibrillization rather than interference with ThT [31], transmission electron microscopy (TEM) of α-syn and tau isoform 2N4R with these same compounds was utilized to visualize direct changes in α-syn and tau isoform 2N4R fibril morphology after 24-hours exposure (FIG. 5). […] Results were reproduced using the tau isoform 2N4R and different compounds at the above-mentioned higher concentrations using the identical molar ratio and incubation time. […] Compound 2 was the only candidate resulting in a grid quasi exempt of fibrils.

[1] = Kinetics of solubility in ThT buffer; type: physicochemical; conditions: ThT buffer: 1×PBS pH 7.4, 300 mM NaCl, 0.5 mM SDS
Protocol: Kinetics of solubility analysis was performed at the MSU Medicinal Chemistry Core facility.

T2 sequence (P10636 1-441 isoform P10636-8): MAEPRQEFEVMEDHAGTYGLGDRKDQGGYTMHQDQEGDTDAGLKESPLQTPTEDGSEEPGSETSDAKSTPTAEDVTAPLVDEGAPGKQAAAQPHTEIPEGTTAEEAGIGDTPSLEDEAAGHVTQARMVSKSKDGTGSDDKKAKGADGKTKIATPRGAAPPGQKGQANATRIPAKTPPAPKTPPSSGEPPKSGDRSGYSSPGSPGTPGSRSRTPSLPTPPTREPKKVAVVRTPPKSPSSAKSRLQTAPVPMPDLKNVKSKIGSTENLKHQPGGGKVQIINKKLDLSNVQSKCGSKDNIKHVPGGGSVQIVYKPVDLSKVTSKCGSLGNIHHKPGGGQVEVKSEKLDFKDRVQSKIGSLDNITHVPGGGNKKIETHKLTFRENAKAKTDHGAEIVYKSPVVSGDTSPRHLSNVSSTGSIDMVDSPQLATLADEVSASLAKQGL

Structure (SMILES)	remaining activity at 100 µM (α-synuclein (α-syn)) [%]	effect on tau isoform 2N4R fibril formation (ThT) (tau isoform 2N4R)	tau isoform 2N4R fibrillization, ThT dose-response (tau isoform 2N4R)	α-syn fibril morphology (TEM) (α-syn)	Measured Solubility [1] [µM]
O=C(Nc1cccc2[nH]ccc12)c1ccccc1 [Compound 2, N-(1H-indol-4-yl)benzamide]	≤ 30	weaker anti-fibrilization effect	reduction in protein fibrillization when subjected to higher concentrations	clear effect in reducing α-syn fibrillization	>300
O=C(Nc1ccc2[nH]ccc2c1)c1ccccc1Cl [Compound 13, 2-chloro-N-(1H-indol-5-yl)benzamide]	73.7 ± 5.6	increased the fluorescence intensity		mature fibrils after 24 hours	>300
O=C(Nc1cccc2[nH]ccc12)c1ccc(F)cc1 [Compound 8, 4-fluoro-N-(1H-indol-4-yl)benzamide]	≤ 30	good inhibitory effect	reduction in protein fibrillization when subjected to higher concentrations	clear effect in reducing α-syn fibrillization; also recorded: most drastic effect, with immature fibrils surrounded by irregular globular structures	>300
